Assay results from patent US20080293060A1, “Methods and Compositions for Identification of Hydrocarbon Response, Transport and Biosynthesis Genes” (priority 2007, published 2008).

Tested on: ARE in Acinetobacter WH405
Assay type: cell-based, Acinetobacter strain WH405 (derivative of strain ADP1)
Conditions: hydrocarbon at 5 and 50 mM, WH405 in LB, 37° C. overnight
Experimental: Acinetobacter strain WH405, an ARE::lacZ derivative of strain ADP1 (Ratajczak et al 1998), was scraped from an overnight plate into LB and diluted to OD600 0.07 (the cells can also be from an overnight culture, as long as cells are diluted in fresh LB). Alkane and alkene induction of the ARE was tested by adding a number of alkenes at 5 and 50 mM to culture tubes, followed by addition of the diluted WH405 solution into tubes (5 mL). Tubes were incubated in a 37° C. shaker overnight. The β-galactosidase activity assay developed by Miller was used to determine the level of induction by the different hydrocarbon from the overnight cultures.

SMILES | induction of the ARE (β-galactosidase activity, Miller assay)
CCCCCCCC/C=C\CCCCCCCCCCC [9-cis-heneicosene] | induced
C=CCCCCCCCCCCCCCCC [1-heptadecene] | induced
CCCCCC [hexane] | not
CCCCCCCCCCCCCCCC [hexadecane] | induced
C=CCCCCCCCCCCCCCC [1-hexadecene] | induced
C=CCCCCCCCCCCCCCCCC [1-octadecene] | induced
CCCCCCCC [octane] | induces
C=CCCCCCCCCCCCCCCCCCC [1-eicosene] | induced
CCCCCCCC/C=C\CCCCCCCCCCCCC [9-cis tricosene] | induced
C=CCCCCCCCCCCCCCCCCC [1-nonadecene] | induced
CCCCCCCCCC [decane] | induced
